Where a SMILES comes first, the peptide text is derived from it. [ ]: non-standard residue; d: D form. Nle = CCCC[C@H](N)C(=O)O
Key:
[1] = tested on: substance P-induced scratching; assay type: in vivo, Male, Swiss CD-1 mice; parameters: ID50 vs SP: unit not given beside the values; details: for % inhibition of SP-induced scratching: mouse, in vivo; for ID50 vs SP: dose of antagonist inhibiting SP-induced scratching by 50%, intrathecal, injected simultaneously with SD90 dose of SP, parentheses = 95% fiducial limits
Source text: (§1) The tachykinin-induced mouse scratching assay was used to evaluate the ability of the Neurokinin B analogs of the invention to act in vivo as antagonists. This test was chosen since scratching is well documented to be a reproducible, characteristic central effect of tachykinin agonists which can be blocked by tachykinin antagonists, see Hylden and Wilcox, Brain Res. 217: 212 (1981); Piercey et al., Science 214: 1361, (1981); Vaught et al., Eur. Journal Pharmacol. 103: 355, (1984).
(§2) Male, Swiss CD-1 mice (Charles River, Kingston, NY) weighing between 18-24 g were used in all experiments. They were allowed food and water ad libitum and each animal was used only once. Substance P, Neurokinin B, bombesin (a compound which induces scratching but is not a tachykinin), [D-Pro^2,D-Trp^7,9 ]-Substance P(1-11) and the product of Example 1 were dissolved in 0.01N acetic acid. The products of Examples 2, 3 and 4 were dissolved in 0.1N NaOH; DMSO and H2 O (1:1:4.7 v/v). These vehicles, injected intrathecally to mice, produced no overt behavioral effects.
To determine the activity of substance P, Neurokinin B and bombesin, these agonists were injected intrathecally (max. volume […]) according to the method of Hylden et al. described in Eur. Journal Pharmacol. 67: 313 (1980). Following the intrathecal injection of agonist, the animals were placed into individual plexiglass observation chambers and observed for five min for the occurrence of the characteristic reciprocal hind-limb scratching response (caudallyn directed scratching of the body interchangeably by the hind limbs). Animals were scored as either responders or non-responders. In order to assess the ability and specificity of the Neurokinin B analogs to block the scratching produced by substance P, Neurokinin B and bombesin, varying doses of the antagonists were injected simultaneously with that dose of agonist causing 90% of the animals to scratch. The ID50 (that dose of antagonist which inhibits scratching produced by an agonist by 50%) was then calculated by probit analysis. In some instances, the percent inhibitions of scratching for a given dose of agonist was compared to control values by the Fishers Exact Test. The following results were obtained in the Scratching Assay: […]

[2] = Mouse Hot Plate Assay (analgesia); assay type: in vivo, mice; details: for ED50: dose producing analgesia in 50% of animals, hot plate 48° C., parentheses = 95% fiducial limits; for ED50 / Duration of Action: intrathecal; for Duration of Action: duration of the analgesic effect; for Onset of Action: time to peak analgesic activity following intrathecal injection
Procedure: Analgesic Utility: The Mouse Hot Plate Assay was used to determine the activity of compounds of the invention as analgesics. The compound vehicles were as described above in the Scratching Assay.
Mouse Hot Plate Assay: The hot plate assay was used to assess analgesic potency, see Vaught and Chipkin, Eur. Journal. Pharmacol. 79, 167-173 (1982) and references therein. In these experiments the hot plate apparatus (Technilab Instruments, Inc.) was maintained at 48±0.05° C. The response measure was the time interval between the animal being placed on the heated surface and licking or shaking its hindpaw. Test drug was administered intrathecally and at appropriate times following drug administration the reaction times redetermined. A reaction time for drug-treated animals greater than three standard deviations from the mean of the control reaction times for all the animals in the group was the criterion for an analgesic response. At least three doses with 10 animals per dose were used to construct dose response curves.

[3] = tested on: Neurokinin B-induced scratching; assay: Tachykinin-induced mouse scratching assay: antagonism of Neurokinin B-induced scratching; assay type: in vivo, Male, Swiss CD-1 mice; parameters: unit not given beside the values; details: dose of antagonist inhibiting NK-induced scratching by 50%; intrathecal, injected simultaneously with SD90 dose of NK; parentheses = 95% fiducial limits
Source text: The tachykinin-induced mouse scratching assay was used to evaluate the ability of the Neurokinin B analogs of the invention to act in vivo as antagonists.
Male, Swiss CD-1 mice (Charles River, Kingston, NY) weighing between 18-24 g were used in all experiments. They were allowed food and water ad libitum and each animal was used only once.
Following the intrathecal injection of agonist, the animals were placed into individual plexiglass observation chambers and observed for five min for the occurrence of the characteristic reciprocal hind-limb scratching response (caudallyn directed scratching of the body interchangeably by the hind limbs). Animals were scored as either responders or non-responders. In order to assess the ability and specificity of the Neurokinin B analogs to block the scratching produced by substance P, Neurokinin B and bombesin, varying doses of the antagonists were injected simultaneously with that dose of agonist causing 90% of the animals to scratch. […] In some instances, the percent inhibitions of scratching for a given dose of agonist was compared to control values by the Fishers Exact Test.

[4] = tested on: bombesin-induced scratching; assay type: in vivo, Male, Swiss CD-1 mice; details: % inhibition of scratching at 20 μg antagonist, intrathecal
Source text: as §1, §2
To determine the activity of substance P, Neurokinin B and bombesin, these agonists were injected intrathecally (max. volume […]) according to the method of Hylden et al. described in Eur. Journal Pharmacol. 67: 313 (1980). […] Animals were scored as either responders or non-responders. […]

Molecule	% inhibition of SP-induced scratching [1]	ED50 [2]	Duration of Action [2]	Onset of Action [2]	ID50 vs. NK [3]	ID50 vs SP [1]	% Inhibition of Bombesin [4]
CCCC[C@H](NC(=O)[C@H](CC(C)C)NC(=O)[C@@H](Cc1c[nH]c2ccccc12)NC(=O)[C@@H](NC(=O)[C@@H](Cc1c[nH]c2ccccc12)NC(=O)[C@H](Cc1ccccc1)NC(=O)[C@@H](CC(=O)O)NC(=O)[C@H](Cc1c[nH]cn1)NC(=O)[C@H]1CCCN1C(=O)[C@@H](N)CC(=O)O)C(C)C)C(N)=O [Example 4, Asp^1 -D-Pro^2 -His^3 -D-Asp^4 -Phe^5 -D-Trp^6 -Val^7 -D-Trp^8 -Leu^9 -Nle^10 -NH2] (H-D[dP]H[dD]F[dW]V[dW]L[Nle]-NH2)	50%	10.0(5.5-18.2) μg	≤ 60 min	20 min	–	–	–
[D-Pro^2,D-Trp^7,9 ]-Substance P(1-11) [[D-Pro^2,D-TrP^7,9]-SP(1-11), reference compound]	–	5.5(3.2-6.8) μg	≤ 15 min	5 min	2.6(0.8-4.8)	4.6(2.9-6.9)	20%
CCCC[C@H](NC(=O)[C@H](CC(C)C)NC(=O)[C@@H](Cc1c[nH]c2ccccc12)NC(=O)[C@@H](NC(=O)[C@@H](Cc1c[nH]c2ccccc12)NC(=O)[C@H](Cc1ccccc1)NC(=O)[C@H](CC(=O)O)NC(=O)[C@H](Cc1c[nH]cn1)NC(=O)[C@H]1CCCN1C(=O)[C@H](N)CC(=O)O)C(C)C)C(N)=O [Example 2, D-Asp^1 -D-Pro^2 -His^3 -Asp^4 -Phe^5 -D-Trp^6 -Val^7 -D-Trp^8 -Leu^9 -Nle^10 -NH2] (H-[dD][dP]HDF[dW]V[dW]L[Nle]-NH2)	90%	7.5(5.9-9.5) μg	120 min	20 min	–	–	–
CCCC[C@H](NC(=O)[C@H](CC(C)C)NC(=O)[C@@H](Cc1c[nH]c2ccccc12)NC(=O)[C@@H](NC(=O)[C@@H](Cc1c[nH]c2ccccc12)NC(=O)[C@H](Cc1ccccc1)NC(=O)[C@@H](CC(=O)O)NC(=O)[C@H](Cc1c[nH]cn1)NC(=O)[C@H]1CCCN1C(=O)[C@H](N)CC(=O)O)C(C)C)C(N)=O [Example 3, D-Asp^1 -D-Pro^2 -His^3 -D-Asp^4 -Phe^5 -D-Trp^6 -Val^7 -D-Trp^8 -Leu^9 -Nle^10 -NH2] (H-[dD][dP]H[dD]F[dW]V[dW]L[Nle]-NH2)	70%	10.4(7.7-13.2) μg	≤ 90 min	20 min	–	–	–
CCCC[C@H](NC(=O)[C@H](CC(C)C)NC(=O)[C@@H](Cc1c[nH]c2ccccc12)NC(=O)[C@@H](NC(=O)[C@@H](Cc1c[nH]c2ccccc12)NC(=O)[C@H](Cc1ccccc1)NC(=O)[C@H](CC(=O)O)NC(=O)[C@H](Cc1c[nH]cn1)NC(=O)[C@H]1CCCN1C(=O)[C@@H](N)CC(=O)O)C(C)C)C(N)=O [Example 1, Asp^1 -D-Pro^2 -His^3 -Asp^4 -Phe^5 -D-Trp^6 -Val^7 -D-Trp^8 -Leu^9 -Nle^10 -NH2] (H-D[dP]HDF[dW]V[dW]L[Nle]-NH2)	–	4.6(3.0-6.4) μg	≥ 90 min	20 min	0.6(0.3-1.2)	3.4(2.3-5.2)	–

Source: patent publication US4665157A, “Peptide antagonists of neurokinin B” (priority 1985, dated 1987)
